Laboratory results taken from patent publication US10219516B2, “Molecules having pesticidal utility, and intermediates, compositions, and processes, related thereto” (priority 2015, dated 2019).

Experiments:
Type in all cases: in vivo
[1] = tested on: Cabbage Looper (Trichoplusia ni, TRIPNI); assay: Bioassay on Cabbage Looper (CL), 128-well diet tray assay; details: Trichoplusia ni; Cabbage Looper, 128-well diet tray assay; read-out: CL rating
Outline: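 Test molecule is dissolved in 90:10 acetone-water and applied at 50 μg/cm^2 onto artificial diet, then dried. One to five second-instar larvae go into each of eight wells. Trays, sealed but vented, stay at 25° C., 14:10 light-dark, five to seven days, after which mortality is averaged.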

[2] = tested on: Beet Armyworm (Spodoptera exigua, LAPHEG); assay: Bioassay on Beet Armyworm (BAW), 128-well diet tray assay; details: Beet Armyworm, 128-well diet tray assay, read-out: BAW rating
Outline: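 Percent mortality, averaged across eight replicate wells, was scored after five to seven days at 25° C. under a 14:10 light-dark cycle. Each well's diet carried 50 μg/cm^2 of the dried test molecule and held one to five second instar larvae.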

[3] = tested on: Yellow Fever Mosquito (Aedes aegypti, AEDSAE); assay: Bioassay on Yellow Fever Mosquito (YFM), 96-well plate larval assay; details: Yellow Fever Mosquito, 96-well plate larval assay
Outline: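 Aedes aegypti larvae (about 1 day old) in liver-powder water were added to plates dispensed from DMSO master plates (4000 ppm stock) diluted with 90:10 water/acetone; six replicate plates per master. Lidded plates were held at room temperature for 3 days, then each well was scored for mortality.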

Structure (SMILES) | pest or weed control at 50 µg/cm2 [1] [%] | pest or weed control at 50 µg/cm2 [2] [%] | YFM rating [3]
Cc1cc(N2C(=O)C=CC2=O)ccc1NC(=O)c1cc(NC(=O)[C@H]2[C@H](c3cc(Cl)cc(Cl)c3)C2(Cl)Cl)ccc1Cl (relative stereo) [F480, 2-chloro-5-(trans-2,2-dichloro-3-(3,5-dichlorophenyl)cyclopropane-1-carboxamido)-N-(4-(2,5-dioxo-2,5-dihydro-1H-pyrrol-1-yl)-2-methylphenyl)benzamide] | 50 to 100 | 50 to 100 | A (80-100)
O=C(Nc1ccc2scnc2c1)c1cc(NC(=O)[C@H]2[C@H](c3cc(Cl)cc(Cl)c3)C2(Cl)Cl)ccc1Cl (relative stereo) [F482, trans-N-(Benzo[d]thiazol-5-yl)-2-chloro-5-(2,2-dichloro-3-(3,5-dichlorophenyl)cyclopropane-1-carboxamido)benzamide] | 50 to 100 | 50 to 100 | A (80-100)
CCOC(=O)c1cc2cc(NC(=O)c3cc(NC(=O)[C@H]4[C@H](c5cc(Cl)cc(Cl)c5)C4(Cl)Cl)ccc3Cl)ccc2[nH]1 (relative stereo) [F483, Ethyl 5-(2-chloro-5-(trans)(2,2-dichloro-3-(3,5-dichlorophenyl)cyclopropane-1-carboxamido)benzamido)-1H-indole-2-carboxylate] | 50 to 100 | 50 to 100 | A (80-100)
Cc1c(NC(=O)c2cc(NC(=O)[C@H]3[C@H](c4cc(Cl)cc(Cl)c4)C3(Cl)Cl)ccc2Cl)ccc2[nH]ccc12 (relative stereo) [F485, 2-Chloro-5-(trans)-(2,2-dichloro-3-(3,5-dichlorophenyl)cyclopropane-1-carboxamido)-N-(4-methyl-1H-indol-5-yl)benzamide] | 50 to 100 | 50 to 100 | A (80-100)
CC(C)(C)c1cc2cc(NC(=O)c3cc(NC(=O)[C@H]4[C@H](c5cc(Cl)cc(Cl)c5)C4(Cl)Cl)ccc3Cl)ccc2[nH]1 (relative stereo) [F486, N-(2-(tert-Butyl)-1H-indol-5-yl)-2-chloro-5-(trans)-(2,2-dichloro-3-(3,5-dichlorophenyl)cyclopropane-1-carboxamido)benzamide] | 50 to 100 | 50 to 100 | A (80-100)
CCn1ccc2cc(NC(=O)c3cc(NC(=O)[C@H]4[C@H](c5cc(Cl)cc(Cl)c5)C4(Cl)Cl)ccc3Cl)ccc21 (relative stereo) [F488, 2-Chloro-5-(trans)-(2,2-dichloro-3-(3,5-dichlorophenyl)cyclopropane-1-carboxamido)-N-(1-ethyl-1H-indol-5-yl)benzamide] | 50 to 100 | 50 to 100 | A (80-100)
CN1C(=O)CCc2cc(NC(=O)c3cc(NC(=O)[C@H]4[C@H](c5cc(Cl)cc(Cl)c5)C4(Cl)Cl)ccc3Cl)ccc21 (relative stereo) [F490, 2-chloro-5-(trans)-(2,2-dichloro-3-(3,5-dichlorophenyl)cyclopropane-1-carboxamido)-N-(1-methyl-2-oxo-1,2,3,4-tetrahydroquinolin-6-yl)benzamide] | 50 to 100 | 50 to 100 | A (80-100)
CN1CCCc2cc(NC(=O)c3cc(NC(=O)[C@H]4[C@H](c5cc(Cl)cc(Cl)c5)C4(Cl)Cl)ccc3Cl)ccc21 (relative stereo) [F491, 2-Chloro-5-(trans)-(2,2-dichloro-3-(3,5-dichlorophenyl)cyclopropane-1-carboxamido)-N-(1-methyl-1,2,3,4-tetrahydroquinolin-6-yl)benzamide] | 50 to 100 | 50 to 100 | A (80-100)
O=C(Nc1ccc2c(c1)CCCN2)c1cc(NC(=O)[C@H]2[C@H](c3cc(Cl)cc(Cl)c3)C2(Cl)Cl)ccc1Cl (relative stereo) [F492, 2-Chloro-5-(trans)-(2,2-dichloro-3-(3,5-dichlorophenyl)cyclopropane-1-carboxamido)-N-(1,2,3,4-tetrahydroquinolin-6-yl)benzamide] | 50 to 100 | 50 to 100 | A (80-100)
N#Cc1ccc2c(N)nn(C(=O)c3cc(NC(=O)[C@H]4[C@H](c5cc(Cl)cc(Cl)c5)C4(Cl)Cl)ccc3Cl)c2c1 (relative stereo) [F493, trans-N-(3-(3-Amino-6-cyano-1H-indazole-1-carbonyl)-4-chlorophenyl)-2,2-dichloro-3-(3,5-dichlorophenyl)cyclopropane-1-carboxamide] | 50 to 100 | 50 to 100 | A (80-100)
CC(=O)Nc1cccc(NC(=O)c2cc(NC(=O)[C@H]3[C@H](c4cc(Cl)cc(Cl)c4)C3(Cl)Cl)ccc2Cl)n1 (relative stereo) [F494, N-(6-Acetamidopyridin-2-yl)-2-chloro-5-(trans-2,2-dichloro-3-(3,5-dichlorophenyl)cyclopropane-1-carboxamido)benzamide] | 50 to 100 | 50 to 100 | A (80-100)
O=C(Nc1ccc2c(ccn2CCF)c1)c1cc(NC(=O)[C@H]2[C@H](c3cc(Cl)cc(Cl)c3)C2(Cl)Cl)ccc1Cl (relative stereo) [F496, 2-Chloro-5-(trans)-(2,2-dichloro-3-(3,5-dichlorophenyl)cyclopropane-1-carboxamido)-N-(1-(2-fluoroethyl)-1H-indol-5-yl)benzamide] | 50 to 100 | 50 to 100 | A (80-100)
O=C(Nc1ccc2[nH]c(-c3ccccc3)cc2c1)c1cc(NC(=O)[C@H]2[C@H](c3cc(Cl)cc(Cl)c3)C2(Cl)Cl)ccc1Cl (relative stereo) [F497, 2-Chloro-5-(trans)-(2,2-dichloro-3-(3,5-dichlorophenyl)cyclopropane-1-carboxamido)-N-(2-phenyl-1H-indol-5-yl)benzamide] | 50 to 100 | 50 to 100 | A (80-100)
O=C(Nc1ccc2c(c1)C(=O)N(c1ccc(F)cc1)C2=O)c1cc(NC(=O)[C@H]2[C@H](c3cc(Cl)cc(Cl)c3)C2(Cl)Cl)ccc1Cl (relative stereo) [F504, 2-Chloro-5-(trans)-(2,2-dichloro-3-(3,5-dichlorophenyl)cyclopropane-1-carboxamido)-N-(2-(4-fluorophenyl)-1,3-dioxoisoindolin-5-yl)benzamide] | 50 to 100 | 50 to 100 | A (80-100)
CC(C)(C)OC(=O)Nc1cccc(NC(=O)c2cc(NC(=O)[C@H]3[C@H](c4ccc(F)c(Cl)c4)C3(Cl)Cl)ccc2Cl)n1 (relative stereo) [F506, tert-Butyl (6-(2-chloro-5-(trans-2,2-dichloro-3-(3-chloro-4-fluorophenyl)cyclopropane-1-carboxamido)benzamido)pyridin-2-yl)carbamate] | 50 to 100 | 50 to 100 | A (80-100)
O=C(Nc1ccc2c(c1)CCN2)c1cc(NC(=O)[C@H]2[C@H](c3cc(Cl)cc(Cl)c3)C2(Cl)Cl)ccc1Cl (relative stereo) [F511, 2-Chloro-5-(trans)-(2,2-dichloro-3-(3,5-dichlorophenyl)cyclopropane-1-carboxamido)-N-(indolin-5-yl)benzamide] | 50 to 100 | 50 to 100 | A (80-100)
CC(C)(C)OC(=O)N(C(=O)OC(C)(C)C)c1c(F)ccc(NC(=O)c2cc(NC(=O)[C@H]3[C@H](c4cccc(C(F)(F)F)c4)C3(Cl)Cl)ccc2Cl)c1F (relative stereo) [F516, trans-tert-Butyl-N-((tert-butoxy)carbonyl)-N-(3-(2-chloro-5-(2,2-dichloro-3-(3-(trifluoromethyl)phenyl)cyclopropane-1-carboxamido)benzamido)-2,6-difluorophenyl)carbamate] | 50 to 100 | 50 to 100 | A (80-100)
CN1Cc2ccc(NC(=O)c3cc(NC(=O)[C@H]4[C@H](c5cc(Cl)cc(Cl)c5)C4(Cl)Cl)ccc3Cl)cc2C1=O (relative stereo) [F517, 2-Chloro-5-(trans)-(2,2-dichloro-3-(3,5-dichlorophenyl)cyclopropane-1-carboxamido)-N-(2-methyl-3-oxoisoindolin-5-yl)benzamide] | 50 to 100 | 50 to 100 | A (80-100)
CN1Cc2cc(NC(=O)c3cc(NC(=O)[C@H]4[C@H](c5cc(Cl)cc(Cl)c5)C4(Cl)Cl)ccc3Cl)ccc2C1=O (relative stereo) [F518, 2-Chloro-5-(trans)-(2,2-dichloro-3-(3,5-dichlorophenyl)cyclopropane-1-carboxamido)-N-(2-methyl-1-oxoisoindolin-5-yl)benzamide] | 50 to 100 | 50 to 100 | A (80-100)
O=C(Nc1cc2cc[nH]c2cc1F)c1cc(NC(=O)[C@H]2[C@H](c3cc(Cl)cc(Cl)c3)C2(Cl)Cl)ccc1Cl (relative stereo) [F527, 2-Chloro-5-(trans)-(2,2-dichloro-3-(3,5-dichlorophenyl)cyclopropane-1-carboxamido)-N-(6-fluoro-1H-indol-5-yl)benzamide] | 50 to 100 | 50 to 100 | A (80-100)
